From patent US6858580B2, “Mixtures of drug-oligomer conjugates comprising polyalkylene glycol, uses thereof, and methods of making same” (Nobex Corporation, priority 2001, dated 2005) come the findings set out here.

In data set [1] the test system is Male CF-1 mice. The data set is described as follows: Serum calcium lowering after single oral dose in fasted mice. To be noted: single oral dose 2.0 μg/kg, average serum calcium. Type of data set: in vivo. The method, then: Male CF-1 mice (Charles River, Raleigh, N.C.) weighing […] were housed in the Nobex vivarium in a light—(L:D cycle of 12:12, lights on at 0600 h), temperature—(21-23° C.), and humidity—(40-60% relative humidity) controlled room. Animals were permitted free access to laboratory chow (PMI Nutrition) and tap water. Mice were allowed to acclimate to housing conditions for 48-72 hours prior to the day of experiment.
Prior to dosing, mice were fasted overnight and water was provided ad libitum. Mice were randomly distributed into groups of five animals per time point and were administered a single oral dose of a PEG7-octyl-sCT, diconjugate (Octyl Di) according to the present invention or salmon calcitonin (sCT or Calcitonin) for comparison purposes. […]
At appropriate time points, mice were ether-anesthetized, the vena cavae exteriorized, and blood samples were obtained via a syringe fitted with a 25-gauge needle. […] Total serum calcium was determined for each animal using a calibrated Vitros DT60 II analyzer.
Serum calcium data were plotted and pharmacokinetic parameters determined via curve-fitting techniques using SigmaPlot software Version 4.1). Means and standard deviations (or standard errors) were calculated and plotted to determine effect differences among dosing groups.

A short description of data set [2]: Enzymatic stability: chymotrypsin digest of calcitonin-oligomer conjugates. Type of data set: in vitro ADME. The method, then:
Compounds, supplied as lyophilized powders, are resuspended in 10 mM phosphate buffer pH 7.4 and then submitted for concentration determination by HPLC. The phosphate buffer is used to create a solution with a pH that is optimum for activity of each particular gut enzyme. Aliquots of the compound thus prepared are transferred to 1.7 mL microcentrifuge tubes and shaken in a 37° C. water bath for 15 minutes to allow compounds to equilibrate to temperature. After 15 minutes, 2 μL of the appropriate concentrated gut enzyme is added to each tube to achieve the final concentration desired. Chymotrypsin and trypsin are resuspended in 1 mM HCl. Also, as a control, compounds are treated with 2 μL of 1 mM HCl. Immediately following additions, 100 μL of sample is removed from the control tube and quenched with either 25 μL of chymotrypsin/trypsin quenching solution (1:1 1% TFA:Isopropanol). This sample will serve as T=0 min. A sampling procedure is repeated at various time intervals depending on the gut enzyme used. […] Trypsin has 30, 60, 120 and 180 minute samples. Once all points have been acquired, a final sample is removed from the control tube to make sure that observed degradation is not temperature or buffer related. […] RP-BPLC (acetonitrile gradient) is used to determine AUC for each sample and % degradation is calculated based from the T=0 min control. […]

Data set [3] is described as follows: Enzymatic stability: trypsin digest of calcitonin-oligomer conjugates. Type of data set: in vitro ADME. The following applies: 10 mM phosphate buffer, control tube without enzyme, pH 7.4, Control tube (1 mM HCl, no enzyme). The method, then: Compounds, supplied as lyophilized powders, are resuspended in 10 mM phosphate buffer pH 7.4 and then submitted for concentration determination by HPLC. The phosphate buffer is used to create a solution with a pH that is optimum for activity of each particular gut enzyme. Aliquots of the compound thus prepared are transferred to 1.7 mL microcentrifuge tubes and shaken in a 37° C. water bath for 15 minutes to allow compounds to equilibrate to temperature. After 15 minutes, 2 μL of the appropriate concentrated gut enzyme is added to each tube to achieve the final concentration desired. Chymotrypsin and trypsin are resuspended in 1 mM HCl. Also, as a control, compounds are treated with 2 μL of 1 mM HCl. Immediately following additions, 100 μL of sample is removed from the control tube and quenched with either 25 μL of chymotrypsin/trypsin quenching solution (1:1 1% TFA:Isopropanol). This sample will serve as T=0 min. A sampling procedure is repeated at various time intervals depending on the gut enzyme used. Chymotrypsin has 15, 30 and 60 minute samples. Trypsin has 30, 60, 120 and 180 minute samples. Once all points have been acquired, a final sample is removed from the control tube to make sure that observed degradation is not temperature or buffer related. The chymotrypsin and trypsin samples may be collected directly into HPLC vials. RP-BPLC (acetonitrile gradient) is used to determine AUC for each sample and % degradation is calculated based from the T=0 min control. The results are provided below in Tables 1 to 4.

For data set [4], the system named is normal fasted beagle dogs. As to the kind of experiment: Activity and inter-subject variability, oral liquid formulation, fasted beagle dogs. Type of data set: in vivo. The following applies: 0.25 mg/kg oral liquid, fasted beagles, blood glucose. From the text:
As yet another example, a substantially monodispersed mixture of drug-oligomer conjugates preferably has an inter-subject variability that is less than the inter-subject variability of a polydispersed mixture of drug-oligomer conjugates having the same number average molecular weight as the substantially monodispersed mixture. As will be understood by those skilled in the art, the number average molecular weight of the substantially monodispersed mixture and the number average weight of the polydispersed mixture may be measured by various methods including, but not limited to, size exclusion chromatography. The inter-subject variability may be measured by various methods as will be understood by those skilled in the art. The inter-subject variability is preferably calculated as follows. The area under a dose response curve (AUC) (i.e., the area between the dose-response curve and a baseline value) is determined for each subject. The average AUC for all subjects is determined by summing the AUCs of each subject and dividing the sum by the number of subjects. The absolute value of the difference between the subject's AUC and the average AUC is then determined for each subject. The absolute values of the differences obtained are then summed to give a value that represents the inter-subject variability. Lower values represent lower inter-subject variabilities and higher values represent higher inter-subject variabilities.
An effective animal model for evaluating formulations uses normal fasted beagle dogs. These dogs are given 0.25 mg/kg of insulin conjugates to evaluate the efficacy of various formulations.
The protocol for dog experiments calls for a blood glucose measurement at time zero just before a drug is administered. The oral liquid dosage formulation is then squirted into the back of the dog's mouth. In each case, the dogs received 0.25 mg/kg of this solution. Blood is drawn at 15, 30, 60 and 120 minutes and glucose levels are measured and graphed. The lower the glucose levels, the better the activity of the insulin conjugate.

Turning to `COCCOCCOCCOCCOCCOCCOCCOCCCCCCCC(=O)NCCCC[C@H](NC(=O)CNC(=O)[C@H](CC(C)C)NC(=O)[C@@H](NC(=O)[C@@H]1CSSC[C@H](N)C(=O)N[C@@H](CO)C(=O)N[C@@H](CC(N)=O)C(=O)N[C@@H](CC(C)C)C(=O)N[C@@H](CO)C(=O)N[C@@H]([C@@H](C)O)C(=O)N1)C(C)C)C(=O)N[C@@H](CC(C)C)C(=O)N[C@@H](CO)C(=O)N[C@@H](CCC(N)=O)C(=O)N[C@@H](CCC(=O)O)C(=O)N[C@@H](CC(C)C)C(=O)N[C@@H](Cc1c[nH]cn1)C(=O)N[C@@H](CCCCNC(=O)CCCCCCCOCCOCCOCCOCCOCCOCCOCCOC)C(=O)N[C@@H](CC(C)C)C(=O)N[C@@H](CCC(N)=O)C(=O)N[C@H](C(=O)N[C@@H](Cc1ccc(O)cc1)C(=O)N1CCC[C@H]1C(=O)N[C@@H](CCCNC(=N)N)C(=O)N[C@H](C(=O)N[C@@H](CC(N)=O)C(=O)N[C@H](C(=O)NCC(=O)N[C@@H](CO)C(=O)NCC(=O)N[C@H](C(=O)N1CCC[C@H]1C(N)=O)[C@@H](C)O)[C@@H](C)O)[C@@H](C)O)[C@@H](C)O`, in data set [1], the “% Baseline Calcium Drop at 2.0 μg/kg dose” value was 21.0%. The remaining at 1 h in data set [2] (10 mM phosphate buffer, control tube without enzyme, pH 7.4, Control tube (1 mM HCl, no enzyme), Non-Formulated, time 60 min) was found to be 104%; in data set [3] (time 60 min), 103%. Also, the remaining at 2 h in data set [3] (time 120 min) turned out to be 106%. The remaining at 3 h in data set [3] (time 180 min) worked out at 104%.

As for `CC(C)C[C@H](NC(=O)[C@H](CCCCN)NC(=O)CNC(=O)[C@H](CC(C)C)NC(=O)[C@@H](NC(=O)[C@@H]1CSSC[C@H](N)C(=O)N[C@@H](CO)C(=O)N[C@@H](CC(N)=O)C(=O)N[C@@H](CC(C)C)C(=O)N[C@@H](CO)C(=O)N[C@@H]([C@@H](C)O)C(=O)N1)C(C)C)C(=O)N[C@@H](CO)C(=O)N[C@@H](CCC(N)=O)C(=O)N[C@@H](CCC(=O)O)C(=O)N[C@@H](CC(C)C)C(=O)N[C@@H](Cc1c[nH]cn1)C(=O)N[C@@H](CCCCN)C(=O)N[C@@H](CC(C)C)C(=O)N[C@@H](CCC(N)=O)C(=O)N[C@H](C(=O)N[C@@H](Cc1ccc(O)cc1)C(=O)N1CCC[C@H]1C(=O)N[C@@H](CCCNC(=N)N)C(=O)N[C@H](C(=O)N[C@@H](CC(N)=O)C(=O)N[C@H](C(=O)NCC(=O)N[C@@H](CO)C(=O)NCC(=O)N[C@H](C(=O)N1CCC[C@H]1C(N)=O)[C@@H](C)O)[C@@H](C)O)[C@@H](C)O)[C@@H](C)O` [Salmon Calcitonin, salmon calcitonin, reference compound], the remaining at 10 min in data set [2] (chymotrypsin (0.5 U/mL) in phosphate buffer, pH 7.4, Non-Formulated, time 10 min, pH 7.4, 37° C., read-out: % Remaining Following 0.5 U/mL Chymotrypsin Digest) is 73%.

On to “PEG4-hexyl-insulin, monoconjugate: non-polydispersed mixture of mPEG4-hexyl-insulin, B29 monoconjugates”, for which, in data set [4], the “activity (glucose lowering) versus polydispersed PEG7AVG-hexyl-insulin, monoconjugate” value is “higher activity” and the “inter-subject variability versus polydispersed PEG7AVG-hexyl-insulin, monoconjugate” value is given as “less inter-subject variability”.

Consider “PEG7-hexyl-insulin, monoconjugate: human insulin monoconjugated at the B29 position with the activated oligomer of Example 18”, for which, in data set [4], the “activity (glucose lowering) versus polydispersed PEG7AVG-hexyl-insulin, monoconjugate” value is reported as “higher activity” and the “inter-subject variability versus polydispersed PEG7AVG-hexyl-insulin, monoconjugate” value is reported as “less inter-subject variability”.

Turning to “PEG10-hexyl-insulin, monoconjugate: non-polydispersed mixture of mPEG10-hexyl-insulin, B29 monoconjugates”, in data set [4], the “activity (glucose lowering) versus polydispersed PEG7AVG-hexyl-insulin, monoconjugate” value is listed as “higher activity” and the “inter-subject variability versus polydispersed PEG7AVG-hexyl-insulin, monoconjugate” value is “less inter-subject variability”.
